Test results reported in PubChem BioAssay AID248 (DTP/NCI, 2004).
Values joined by “and” are separate entries in the source; they are usually repeats but may differ in a detail not shown here. Equal entries are not always repeated. Inconclusive results and toxic doses are left out. Cut-off read from the data, not from the text of the source: active = T/C of 150% or more; inactive = T/C below 125%.

Tested on: L1210 leukemia ip in BDF1 mice, survival T/C
Assay: NCI In Vivo Anticancer Drug Screen. Data for tumor model L1210 Leukemia (intraperitoneal) in B6D2F1 (BDF1) mice
Conditions: endpoint: mean survival time, higher = longer survival
In short: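 Antitumor effect is assessed in tumor-bearing animals. Survival in the compound arm is compared with a vehicle-dosed control arm and expressed as their quotient.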

[1] = dose: 100.0 mg/kg/injection, schedule: Q01DX009 (ip), vehicle: gum acacia
[2] = dose: 200.0 mg/kg/injection, schedule: Q01DX009 (ip), vehicle: gum acacia
[3] = dose: 400.0 mg/kg/injection, schedule: Q01DX009 (ip), vehicle: gum acacia
[4] = dose: 50.0 mg/kg/injection, schedule: Q01DX009 (ip), vehicle: Klucel (hydroxypropylcellulose) (HPC)
[5] = dose: 100.0 mg/kg/injection, schedule: Q01DX009 (ip), vehicle: Klucel (hydroxypropylcellulose) (HPC)
[6] = dose: 100.0 mg/kg/injection, schedule: Q04DX003 (ip), vehicle: Klucel (hydroxypropylcellulose) (HPC)
[7] = dose: 200.0 mg/kg/injection, schedule: Q04DX003 (ip), vehicle: Klucel (hydroxypropylcellulose) (HPC)
[8] = dose: 400.0 mg/kg/injection, schedule: Q04DX003 (ip), vehicle: Klucel (hydroxypropylcellulose) (HPC)
[9] = dose: 200.0 mg/kg/injection, schedule: Q01DX009 (ip), vehicle: Klucel (hydroxypropylcellulose) (HPC)
[10] = dose: 400.0 mg/kg/injection, schedule: Q01DX009 (ip), vehicle: Klucel (hydroxypropylcellulose) (HPC)
[11] = dose: 100.0 mg/kg/injection, schedule: Q01DX001 (ip), vehicle: other
[12] = dose: 400.0 mg/kg/injection, schedule: Q01DX001 (ip), vehicle: other
[13] = dose: 25.0 mg/kg/injection, schedule: Q01DX009 (ip), vehicle: other
[14] = dose: 100.0 mg/kg/injection, schedule: Q01DX009 (ip), vehicle: other

Measured: T/C

O=C(Nc1ccc(Nc2ccccc2)cc1)Nc1cccc(C(F)(F)F)c1
inactive: dose: 100.0 mg/kg/injection, schedule: Q01DX001 (ip), vehicle: gum acacia 94 % of control and 97 % of control | [1] 94 % of control and 98 % of control | dose: 100.0 mg/kg/injection, schedule: Q04DX002 (ip), vehicle: gum acacia 95 % of control | dose: 100.0 mg/kg/injection, schedule: Q04DX003 (ip), vehicle: gum acacia 100 % of control and 101 % of control | dose: 200.0 mg/kg/injection, schedule: Q01DX001 (ip), vehicle: gum acacia 97 % of control and 90 % of control | [2] 98 % of control and 103 % of control | dose: 200.0 mg/kg/injection, schedule: Q04DX002 (ip), vehicle: gum acacia 93 % of control and 86 % of control | dose: 200.0 mg/kg/injection, schedule: Q04DX003 (ip), vehicle: gum acacia 94 % of control | dose: 400.0 mg/kg/injection, schedule: Q01DX001 (ip), vehicle: gum acacia 103 % of control and 87 % of control | [3] 97 % of control and 91 % of control | dose: 400.0 mg/kg/injection, schedule: Q04DX002 (ip), vehicle: gum acacia 100 % of control | dose: 400.0 mg/kg/injection, schedule: Q04DX003 (ip), vehicle: gum acacia 95 % of control and 96 % of control

O=C1OC(c2cccc([N+](=O)[O-])c2)=N/C1=C\c1ccc(O)cc1
inactive: dose: 100.0 mg/kg/injection, schedule: Q04DX002 (ip), vehicle: saline 101 % of control | dose: 200.0 mg/kg/injection, schedule: Q04DX002 (ip), vehicle: saline 101 % of control | dose: 400.0 mg/kg/injection, schedule: Q04DX002 (ip), vehicle: saline 101 % of control

O=C1OCC/C1=C/OS(=O)(=O)C(F)(F)F
inactive: dose: 12.5 mg/kg/injection, schedule: Q01DX009 (ip), vehicle: water 105 % of control | dose: 25.0 mg/kg/injection, schedule: Q01DX009 (ip), vehicle: water 106 % of control | dose: 50.0 mg/kg/injection, schedule: Q01DX009 (ip), vehicle: water 105 % of control | dose: 100.0 mg/kg/injection, schedule: Q01DX009 (ip), vehicle: water 104 % of control

O=[N+]([O-])/C=C/c1ccc([N+](=O)[O-])cc1
inactive: dose: 6.25 mg/kg/injection, schedule: Q01DX005 (ip), vehicle: saline with Tween-80 110 % of control | dose: 12.5 mg/kg/injection, schedule: Q01DX005 (ip), vehicle: saline with Tween-80 104 % of control | dose: 25.0 mg/kg/injection, schedule: Q01DX005 (ip), vehicle: saline with Tween-80 114 % of control | [4] 93 % of control | [5] 97 % of control | [6] 96 % of control | [7] 104 % of control

CNC1=C(C)C(=O)C2=C(C1=O)C(COC(N)=O)C1(O)C3C(CN21)N3C (stereo unspecified)
inactive: dose: 6.6 mg/kg/injection, schedule: Q01DX001 (ip), vehicle: alcohol 100 % of control | dose: 15.0 mg/kg/injection, schedule: Q01DX001 (ip), vehicle: acetone 104 % of control

Cc1[nH]c(=S)[nH]c(=O)c1CCC(C)C
inactive: [6] 113 % of control | [7] 100 % of control | [8] 106 % of control

C#CC1(O)CCC2C3CCc4cc(OC)ccc4C3CCC21C (stereo unspecified)
inactive: dose: 10.0 mg/kg/injection, schedule: Q01DX009 (sc), vehicle: saline with Tween-80 102 % of control | dose: 100.0 mg/kg/injection, schedule: Q04DX003 (sc), vehicle: olive oil, sesame oil, peanut oil 102 % of control | dose: 200.0 mg/kg/injection, schedule: Q01DX009 (sc), vehicle: saline with Tween-80 98 % of control | dose: 200.0 mg/kg/injection, schedule: Q04DX003 (sc), vehicle: olive oil, sesame oil, peanut oil 102 % of control | dose: 400.0 mg/kg/injection, schedule: Q01DX009 (sc), vehicle: saline with Tween-80 96 % of control | dose: 400.0 mg/kg/injection, schedule: Q04DX003 (sc), vehicle: olive oil, sesame oil, peanut oil 100 % of control

CCN(C(=O)COc1ccc(Cl)cc1)c1ccccc1C
inactive: [5] 102 % of control | [6] 101 % of control | [9] 107 % of control | [7] 97 % of control | [10] 116 % of control | [8] 98 % of control

CCCC(Cc1cccs1)C(=O)O (stereo unspecified)
inactive: [11] 101 % of control | dose: 200.0 mg/kg/injection, schedule: Q01DX001 (ip), vehicle: other 97 % of control | [12] 97 % of control

CC(=O)Nc1ccc(NC(=O)Nc2cccc(C(F)(F)F)c2)cc1
inactive: [5] 94 % of control | [9] 87 % of control

CNC(=O)Nc1ccc(OC)cc1Cl
inactive: [5] 98 % of control and 87 % of control | [9] 98 % of control | [10] 95 % of control and 90 % of control

Nc1ccc(C(=O)N/N=C/c2ccccc2[N+](=O)[O-])cc1
inactive: dose: 12.5 mg/kg/injection, schedule: Q01DX009 (ip), vehicle: other 91 % of control | [13] 93 % of control

COc1ccc(CC2=[N+](C)CCc3cc(OC)c(OC)cc32)cc1OC
inactive: [13] 101 % of control | dose: 50.0 mg/kg/injection, schedule: Q01DX009 (ip), vehicle: other 104 % of control | [11] 106 % of control | [14] 106 % of control | [12] 106 % of control

CC(=O)OC1=NC(C)c2c1cc(OC(C)=O)[nH]c2=O (stereo unspecified)
inactive: [4] 102 % of control | [6] 108 % of control | [7] 115 % of control

CC(C)(C)[O][Pb]([c]1ccccc1)([c]1ccccc1)[c]1ccccc1
inactive: dose: 1.56 mg/kg/injection, schedule: Q01DX009 (ip), vehicle: saline with Tween-80 91 % of control

CC(C)(C)c1ccc(OC(=O)Nc2cccc(C(F)(F)F)c2)cc1
inactive: [1] 101 % of control | [2] 95 % of control | [3] 103 % of control

c1ccc(COc2ccc(Cc3nccc4ccccc34)cc2OCc2ccccc2)cc1
inactive: dose: 100.0 mg/kg/injection, schedule: Q04DX003 (ip), vehicle: saline with Tween-80 88 % of control | dose: 400.0 mg/kg/injection, schedule: Q04DX003 (ip), vehicle: saline with Tween-80 88 % of control

[C-]#[N+]/C=C1\OC(=O)C=C1C
inactive: dose: 100.0 mg/kg/injection, schedule: Q04DX002 (ip), vehicle: saline with Tween-80 97 % of control | dose: 200.0 mg/kg/injection, schedule: Q04DX002 (ip), vehicle: saline with Tween-80 110 % of control | dose: 400.0 mg/kg/injection, schedule: Q04DX002 (ip), vehicle: saline with Tween-80 97 % of control

CC(C)CCCC(C)C1CCC2C3CC=C4CC(OCCO)CCC4(C)C3CCC12C (stereo unspecified)
inactive: [14] 87 % of control | dose: 200.0 mg/kg/injection, schedule: Q01DX009 (ip), vehicle: other 105 % of control

CC1Cc2ccccc2C2=C3CC=CCC3C3C(=O)OC(=O)C3C21 (stereo unspecified)
inactive: dose: 75.0 mg/kg/injection, schedule: Q01DX001 (ip), vehicle: carboxymethylcellulose (CMC) 89 % of control | dose: 150.0 mg/kg/injection, schedule: Q01DX001 (ip), vehicle: carboxymethylcellulose (CMC) 94 % of control | dose: 300.0 mg/kg/injection, schedule: Q01DX001 (ip), vehicle: carboxymethylcellulose (CMC) 90 % of control

COC1(c2ccccc2)OC12CC1CCC2C1 (stereo unspecified)
inactive: dose: 50.0 mg/kg/injection, schedule: Q04DX003 (ip), vehicle: saline 98 % of control | dose: 100.0 mg/kg/injection, schedule: Q01DX001 (ip), vehicle: saline 95 % of control | dose: 100.0 mg/kg/injection, schedule: Q04DX003 (ip), vehicle: saline 100 % of control | dose: 200.0 mg/kg/injection, schedule: Q01DX001 (ip), vehicle: saline 101 % of control | dose: 200.0 mg/kg/injection, schedule: Q04DX003 (ip), vehicle: saline 100 % of control | dose: 400.0 mg/kg/injection, schedule: Q01DX001 (ip), vehicle: saline 95 % of control
